Reference: patent US8778727B2, “Method of manufacturing organic electroluminescence display device” (Canon Kabushiki Kaisha, priority 2011, dated 2014)

Assays:
[1] = Etching (dissolution) of deposited layers by IPA/water mixed solvent; type: physicochemical; settings: IPA 60 wt %; for etching rate: deposited film
Description: In the present invention, a larger etching rate means a higher dissolution rate. In addition, a larger etching rate means a higher solubility of a layer having a material of interest in the solvent (polar solvent).
FIG. 3 is a graph illustrating thickness changes in the compound 1 and the compound A2 over an etching time. Here, FIG. 3 illustrates the results of the etching of the respective layers when a mixed solvent obtained by mixing isopropyl alcohol (IPA) and water so that IPA may account for 60 wt % (hereinafter, sometimes referred to as “IPA/water mixed solvent”) is used as a solvent formed of a polar solvent.
When the etching rates of the respective layers are calculated with their etching conditions made identical to each other, the etching rate of the layer A is 0.008 nm/sec but the etching rate of the layer B is 0.87 nm/sec, that is, a ratio of the latter to the former is about 100.
Here, a ratio (n) between the etching rates of the organic compound layer (corresponding to the layer A) and the release layer (corresponding to the layer B) by the polar solvent can be represented like the following equation.
Performed next was a second processing step of removing a part of the release layer 30 with a mixed solvent obtained by mixing water and IPA so that an IPA concentration was 60 wt % to reduce the thickness of the release layer 30. It should be noted that as the etching rate of the compound (phenanthroline derivative represented by the formula (2)) constituting the release layer 30 in this example was 0.9 nm/sec, part of the release layer 30 was removed through immersion in the mixed solvent for 530 seconds so that the thinning was performed (FIG. 2M). As a result of the second processing step, the thickness of the release layer 30 became 20 nm. In addition, each release layer subjected to the thinning in the second processing step functions as the charge transport layer (electron transport layer) 23a, 23b, or 23c. Next, vacuum heating was performed at 80° C. so that the solvent remaining on the charge transport layer was removed.

[2] = Solubility in IPA/water mixed solvent (FIG. 4); type: physicochemical; settings: IPA concentration 80 wt %; per 1 g solvent
Description: The solubility of a compound as a constituent material for each layer in the IPA/water mixed solvent varies depending on the weight ratio of IPA in the mixed solvent. FIG. 4 is a graph illustrating the solubilities of the compound 1 (condensed polycyclic hydrocarbon compound) and the compound A2 (heterocyclic compound) in the IPA/water mixed solvent (polar solvent). Here, in the graph of FIG. 4, the axis of abscissa indicates the weight percent concentration of IPA in the IPA/water mixed solvent, and the axis of ordinate indicates the amount of the condensed polycyclic hydrocarbon compound or heterocyclic compound to dissolve in 1 g of the solvent.

Compound	thickness change over etching time (FIG. 3) [1]	etching rate [1]	amount dissolving in 1 g of the IPA/water mixed solvent [2]	ratio (n) of etching rate of release layer (layer B, compound A2) to organic compound layer (layer A, compound 1) ([1]; identical etching conditions)	etching rate ([1]; listed as formula (2))
CC1(C)c2cc(-c3ccc4ccc5cccc6ccc3c4c56)ccc2-c2ccc(-c3ccc4ccc5cccc6ccc3c4c56)cc21 [compound 1]	nearly no thickness reduction	0.008 nm/s	5 µg		
CC1(C)c2ccccc2-c2ccc(-c3ccc4ccc5ccc(-c6ccc7c(c6)C(C)(C)c6ccccc6-7)nc5c4n3)cc21 [compound A2]	reduces over time	0.87 nm/s	73 µg	about 100	0.9 nm/s
c1ccc(-c2cc(-c3ccccc3)cc(-c3cccc(-c4cccc(-c5ccc6c7ccccc7c7ccccc7c6c5)c4)c3)c2)cc1 [compound B1]		1.3 nm/s			
O=C1c2ccccc2OC2C=CC(c3cccc(-c4cccc(-c5cc(-c6cccc(-c7ccccc7)c6)cc(-c6cccc(C7C=CC=CC7)c6)c5)c4)c3)=CC12 (stereo not shown) [compound C1]		1.5 nm/s			
